In patent US9796671B2, “Aurora kinase inhibitors” (REGENTS OF THE UNIVERSITY OF MINNESOTA, priority 2012, dated 2017):

Columns and labels:
Experiment in all cases: Kinase profile assay (Millipore)
Assay type in all cases: biochemical
AMPK-alpha1 = biological target: T1, AMPK-alpha1 (Homo sapiens, UniProt Q13131); conditions: read-out: kinase activity compared with the control
T1 construct: purchased Millipore
Experimental: (§1) A kinase profile assay was performed by Millipore, to examine other potential targets of Compound 1. Only Akt2 activity was suppressed more than 50% after 5 μM compound 1 treatment, compared with the control (Table 2). In addition, the kinase activity of Aurora A was decreased less than 25% at 5 μM Compound 1.

PKB alpha (Akt1) = biological target: T2, PKB alpha (Akt1) (Homo sapiens, UniProt P31749); conditions: read-out: kinase activity compared with the control
T2 construct: purchased Millipore
T2 sequence (P31749 whole entry, species assumed): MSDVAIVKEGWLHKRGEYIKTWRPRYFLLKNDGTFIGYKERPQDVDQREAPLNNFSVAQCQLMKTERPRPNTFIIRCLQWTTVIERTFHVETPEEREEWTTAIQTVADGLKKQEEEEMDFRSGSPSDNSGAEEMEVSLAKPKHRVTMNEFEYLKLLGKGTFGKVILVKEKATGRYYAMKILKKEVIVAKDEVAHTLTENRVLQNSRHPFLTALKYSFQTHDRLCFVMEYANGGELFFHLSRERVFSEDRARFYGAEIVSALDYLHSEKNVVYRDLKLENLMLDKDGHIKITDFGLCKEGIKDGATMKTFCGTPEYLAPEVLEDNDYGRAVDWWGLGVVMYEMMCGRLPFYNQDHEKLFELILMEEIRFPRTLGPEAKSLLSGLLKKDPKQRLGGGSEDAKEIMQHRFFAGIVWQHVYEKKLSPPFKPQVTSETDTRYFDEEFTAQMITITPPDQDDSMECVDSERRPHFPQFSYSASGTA
Experimental: as §1

RSK2 = biological target: T3, RSK2 (Homo sapiens, UniProt P51812); conditions: read-out: kinase activity compared with the control
T3 construct: purchased Millipore
T3 sequence (P51812 whole entry, species assumed): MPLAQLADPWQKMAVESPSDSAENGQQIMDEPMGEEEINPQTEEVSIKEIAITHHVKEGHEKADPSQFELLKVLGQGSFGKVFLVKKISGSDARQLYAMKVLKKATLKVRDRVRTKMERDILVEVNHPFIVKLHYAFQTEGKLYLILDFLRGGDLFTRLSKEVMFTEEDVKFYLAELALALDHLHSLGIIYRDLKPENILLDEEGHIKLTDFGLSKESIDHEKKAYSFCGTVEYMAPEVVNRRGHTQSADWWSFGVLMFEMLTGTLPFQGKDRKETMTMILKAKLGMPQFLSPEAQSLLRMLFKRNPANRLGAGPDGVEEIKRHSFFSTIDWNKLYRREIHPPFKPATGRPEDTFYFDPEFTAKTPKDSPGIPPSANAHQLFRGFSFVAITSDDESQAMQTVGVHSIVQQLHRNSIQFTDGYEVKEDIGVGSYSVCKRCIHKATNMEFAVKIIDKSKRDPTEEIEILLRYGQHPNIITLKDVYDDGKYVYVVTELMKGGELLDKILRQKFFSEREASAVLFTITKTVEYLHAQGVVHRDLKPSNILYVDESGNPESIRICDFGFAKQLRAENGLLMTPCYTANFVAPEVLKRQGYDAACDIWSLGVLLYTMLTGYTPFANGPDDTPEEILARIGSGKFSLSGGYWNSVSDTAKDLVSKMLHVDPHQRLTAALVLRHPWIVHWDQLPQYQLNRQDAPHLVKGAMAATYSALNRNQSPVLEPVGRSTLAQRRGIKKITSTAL
Experimental: as §1

AMPK-alpha2 = biological target: T4, AMPK-alpha2 (Homo sapiens, UniProt P54646); conditions: read-out: kinase activity compared with the control
T4 construct: purchased Millipore
Experimental: as §1

IKK beta = biological target: T5, IKK beta (Homo sapiens, UniProt O14920); conditions: read-out: kinase activity compared with the control
T5 construct: purchased Millipore
Experimental: as §1

mTOR/FKBP12 = biological target: T6, mTOR/FKBP12 (Homo sapiens, UniProt P42345); conditions: read-out: kinase activity compared with the control
T6 construct: purchased Millipore
Experimental: as §1

KDR = biological target: T7, KDR (Homo sapiens, UniProt P35968); conditions: read-out: kinase activity compared with the control
T7 construct: purchased Millipore
Experimental: as §1

EGFR (T790M, L858R) = biological target: T8, EGFR (T790M, L858R) (Homo sapiens, UniProt P00533, L858R/T790M); conditions: 5 μM
T8 construct: purchased Millipore
Experimental: as §1

c-RAF = biological target: T9, c-RAF (Homo sapiens, UniProt P04049); conditions: read-out: kinase activity compared with the control
T9 construct: purchased Millipore
Experimental: as §1

MKK4 = biological target: T10, MKK4 (Mus musculus, UniProt P47809); conditions: read-out: kinase activity compared with the control
T10 construct: purchased Millipore
Experimental: as §1

IGF-1R = biological target: T11, IGF-1R (Homo sapiens, UniProt P08069); conditions: read-out: kinase activity compared with the control
T11 construct: purchased Millipore
Experimental: as §1

MAPK1 = biological target: T12, MAPK1 (Homo sapiens, UniProt P27361); conditions: read-out: kinase activity compared with the control
T12 construct: purchased Millipore
T12 sequence (P27361 whole entry): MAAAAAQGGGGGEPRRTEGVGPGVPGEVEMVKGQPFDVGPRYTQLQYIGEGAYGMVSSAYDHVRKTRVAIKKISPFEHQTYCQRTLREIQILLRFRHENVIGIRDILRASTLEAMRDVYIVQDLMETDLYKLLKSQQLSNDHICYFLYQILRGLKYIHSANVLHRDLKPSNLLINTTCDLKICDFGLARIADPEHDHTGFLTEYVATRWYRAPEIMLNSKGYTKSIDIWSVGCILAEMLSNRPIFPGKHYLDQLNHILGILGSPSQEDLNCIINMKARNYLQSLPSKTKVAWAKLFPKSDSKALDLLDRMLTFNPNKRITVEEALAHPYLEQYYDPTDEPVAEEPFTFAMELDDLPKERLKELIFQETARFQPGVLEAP
Experimental: as §1

Flt3 = biological target: T13, Flt3 (Homo sapiens, UniProt P36888); conditions: read-out: kinase activity compared with the control
T13 construct: purchased Millipore
Experimental: as §1

EGFR = biological target: T14, EGFR (Homo sapiens, UniProt P00533); conditions: 5 μM
T14 construct: purchased Millipore
Experimental: as §1

FAK = biological target: T15, FAK (Homo sapiens, UniProt Q05397); conditions: read-out: kinase activity compared with the control
T15 construct: purchased Millipore
T15 sequence (Q05397 whole entry, species assumed): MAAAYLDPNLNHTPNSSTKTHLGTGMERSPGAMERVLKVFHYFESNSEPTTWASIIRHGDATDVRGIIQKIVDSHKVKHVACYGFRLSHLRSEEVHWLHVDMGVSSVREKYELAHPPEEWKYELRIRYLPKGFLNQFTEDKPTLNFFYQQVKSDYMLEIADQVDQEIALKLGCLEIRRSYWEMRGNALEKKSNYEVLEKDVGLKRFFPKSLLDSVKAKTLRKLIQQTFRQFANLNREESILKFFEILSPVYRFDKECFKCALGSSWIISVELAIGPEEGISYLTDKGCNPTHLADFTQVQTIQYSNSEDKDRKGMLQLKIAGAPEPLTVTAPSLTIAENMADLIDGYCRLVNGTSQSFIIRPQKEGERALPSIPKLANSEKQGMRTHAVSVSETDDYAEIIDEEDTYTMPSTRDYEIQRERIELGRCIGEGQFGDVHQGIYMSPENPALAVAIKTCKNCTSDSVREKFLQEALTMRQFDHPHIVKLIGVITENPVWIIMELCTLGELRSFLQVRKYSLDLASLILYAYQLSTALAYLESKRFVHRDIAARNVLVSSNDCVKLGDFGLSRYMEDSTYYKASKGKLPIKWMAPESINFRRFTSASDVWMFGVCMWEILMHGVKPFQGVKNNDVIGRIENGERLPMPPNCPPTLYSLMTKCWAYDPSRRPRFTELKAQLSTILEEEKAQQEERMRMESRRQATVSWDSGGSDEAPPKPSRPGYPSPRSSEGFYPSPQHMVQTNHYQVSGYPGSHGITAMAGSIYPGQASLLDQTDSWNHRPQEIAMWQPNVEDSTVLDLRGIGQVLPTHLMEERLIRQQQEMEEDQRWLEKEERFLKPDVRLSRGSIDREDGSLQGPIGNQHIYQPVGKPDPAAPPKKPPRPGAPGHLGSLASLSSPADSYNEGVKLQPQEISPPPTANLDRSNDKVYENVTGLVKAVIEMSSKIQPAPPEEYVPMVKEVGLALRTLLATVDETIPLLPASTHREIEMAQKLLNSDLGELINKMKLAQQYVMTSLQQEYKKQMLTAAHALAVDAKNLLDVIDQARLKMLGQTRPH
Experimental: as §1

DYRK2 = biological target: T16, DYRK2 (Homo sapiens, UniProt Q92630); conditions: read-out: kinase activity compared with the control
T16 construct: purchased Millipore
Experimental: as §1

Abl = biological target: T17, Abl (Homo sapiens, UniProt P00519); conditions: read-out: kinase activity compared with the control
T17 construct: purchased Millipore
Experimental: as §1

PI3-K alpha = PI3-K alpha (Homo sapiens, UniProt P42336); conditions: read-out: kinase activity compared with the control
Experimental: as §1

CDK3/cyclinE = biological target: T18, CDK3/cyclinE (Homo sapiens, UniProt Q00526); conditions: 5 μM
T18 construct: purchased Millipore
Experimental: as §1

Met = biological target: T19, Met (Homo sapiens, UniProt P08581); conditions: 5 μM
T19 construct: purchased Millipore
Experimental: as §1

Pim-1 = biological target: T20, Pim-1 (Homo sapiens, UniProt P11309); conditions: read-out: kinase activity compared with the control
T20 construct: purchased Millipore
Experimental: as §1

MSK1 = biological target: T21, MSK1 (Homo sapiens, UniProt O75582); conditions: read-out: kinase activity compared with the control
T21 construct: purchased Millipore
Experimental: as §1

c-Src = biological target: T22, c-Src (Homo sapiens, UniProt P12931); conditions: read-out: kinase activity compared with the control
T22 construct: purchased Millipore
Experimental: as §1

CDK2/cyclinA = biological target: T23, CDK2/cyclinA (Homo sapiens, UniProt P24941); conditions: 5 μM
T23 construct: purchased Millipore
Experimental: as §1

c-Kit = biological target: T24, c-Kit (Homo sapiens, UniProt P10721); conditions: read-out: kinase activity compared with the control
T24 construct: purchased Millipore
Experimental: as §1

MKK6 = biological target: T25, MKK6 (Homo sapiens, UniProt P52564); conditions: read-out: kinase activity compared with the control
T25 construct: purchased Millipore
Experimental: as §1

PKB beta (Akt2) = biological target: T26, PKB beta (Akt2) (Homo sapiens, UniProt P31751)
T26 construct: purchased Millipore
T26 sequence (P31751 whole entry, species assumed): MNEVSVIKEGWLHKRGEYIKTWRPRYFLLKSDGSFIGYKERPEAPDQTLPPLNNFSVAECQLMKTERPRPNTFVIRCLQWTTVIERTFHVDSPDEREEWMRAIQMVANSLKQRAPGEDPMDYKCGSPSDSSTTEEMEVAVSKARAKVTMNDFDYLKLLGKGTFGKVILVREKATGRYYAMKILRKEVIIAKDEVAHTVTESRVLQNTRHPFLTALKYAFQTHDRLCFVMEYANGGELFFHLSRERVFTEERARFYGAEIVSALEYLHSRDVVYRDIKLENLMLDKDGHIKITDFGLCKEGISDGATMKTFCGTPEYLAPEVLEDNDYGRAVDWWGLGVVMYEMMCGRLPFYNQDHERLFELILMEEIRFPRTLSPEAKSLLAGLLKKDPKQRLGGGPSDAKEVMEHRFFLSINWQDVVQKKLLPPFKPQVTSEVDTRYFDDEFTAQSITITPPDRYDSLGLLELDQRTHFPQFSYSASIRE
Experimental: as §1

PI3-K gamma = PI3-K gamma (Homo sapiens, UniProt P48736); conditions: read-out: kinase activity compared with the control
Experimental: as §1

GSK3 beta = biological target: T27, GSK3 beta (Homo sapiens, UniProt P49841); conditions: read-out: kinase activity compared with the control
T27 construct: purchased Millipore
Experimental: as §1

JNK1 alpha1 = biological target: T28, JNK1 alpha1 (Homo sapiens, UniProt P45983); conditions: 5 μM
T28 construct: purchased Millipore
Experimental: as §1

mTOR = biological target: T29, mTOR (Homo sapiens, UniProt P42345); conditions: read-out: kinase activity compared with the control
T29 construct: purchased Millipore
Experimental: as §1

PDK1 = biological target: T30, PDK1 (Homo sapiens, UniProt O15530); conditions: read-out: kinase activity compared with the control
T30 construct: purchased Millipore
T30 sequence (O15530 whole entry): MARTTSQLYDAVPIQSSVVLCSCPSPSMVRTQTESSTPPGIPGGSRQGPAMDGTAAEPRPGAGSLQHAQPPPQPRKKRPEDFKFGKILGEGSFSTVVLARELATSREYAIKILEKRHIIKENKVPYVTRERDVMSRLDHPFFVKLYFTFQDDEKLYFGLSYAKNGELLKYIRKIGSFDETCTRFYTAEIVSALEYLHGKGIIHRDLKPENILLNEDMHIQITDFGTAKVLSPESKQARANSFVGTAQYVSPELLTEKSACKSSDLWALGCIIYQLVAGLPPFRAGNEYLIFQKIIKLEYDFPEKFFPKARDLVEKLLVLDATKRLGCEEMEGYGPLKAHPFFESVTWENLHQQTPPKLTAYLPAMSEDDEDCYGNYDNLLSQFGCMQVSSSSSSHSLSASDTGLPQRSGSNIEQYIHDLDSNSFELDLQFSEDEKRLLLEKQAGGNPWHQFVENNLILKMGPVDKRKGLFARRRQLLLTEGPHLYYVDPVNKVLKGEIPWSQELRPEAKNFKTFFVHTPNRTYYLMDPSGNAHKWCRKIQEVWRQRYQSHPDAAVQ
Experimental: as §1

PI3-K delta = PI3-K delta (Homo sapiens, UniProt O00329); conditions: read-out: kinase activity compared with the control
Experimental: as §1

MAPK2 = biological target: T31, MAPK2 (Homo sapiens, UniProt P28482); conditions: read-out: kinase activity compared with the control
T31 construct: purchased Millipore
Experimental: as §1

CHK2 = biological target: T32, CHK2 (Homo sapiens, UniProt O96017); conditions: read-out: kinase activity compared with the control
T32 construct: purchased Millipore
Experimental: as §1

CDK1/cyclinB = biological target: T33, CDK1/cyclinB (Homo sapiens, UniProt P06493); conditions: read-out: kinase activity compared with the control
T33 construct: purchased Millipore
Experimental: as §1

MEK1 = biological target: T34, MEK1 (Homo sapiens, UniProt Q02750); conditions: read-out: kinase activity compared with the control
T34 construct: purchased Millipore
Experimental: as §1

T1 sequence (Q13131 whole entry): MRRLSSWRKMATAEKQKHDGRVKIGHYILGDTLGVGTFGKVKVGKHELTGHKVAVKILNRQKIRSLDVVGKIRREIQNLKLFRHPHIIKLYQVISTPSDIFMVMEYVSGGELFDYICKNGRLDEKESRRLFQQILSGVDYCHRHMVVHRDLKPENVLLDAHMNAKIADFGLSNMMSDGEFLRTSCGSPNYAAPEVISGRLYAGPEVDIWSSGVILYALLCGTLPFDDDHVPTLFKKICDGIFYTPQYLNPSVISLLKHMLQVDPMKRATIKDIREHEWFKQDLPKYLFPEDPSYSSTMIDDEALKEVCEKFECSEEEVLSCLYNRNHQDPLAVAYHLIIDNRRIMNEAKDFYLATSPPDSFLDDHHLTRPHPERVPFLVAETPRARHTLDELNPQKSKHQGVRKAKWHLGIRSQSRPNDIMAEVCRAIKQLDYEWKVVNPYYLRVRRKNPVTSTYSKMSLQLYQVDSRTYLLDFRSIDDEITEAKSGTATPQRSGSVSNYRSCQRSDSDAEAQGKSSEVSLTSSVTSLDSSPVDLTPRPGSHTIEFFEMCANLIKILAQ
T1 sequence (Q9Y478 whole entry partner): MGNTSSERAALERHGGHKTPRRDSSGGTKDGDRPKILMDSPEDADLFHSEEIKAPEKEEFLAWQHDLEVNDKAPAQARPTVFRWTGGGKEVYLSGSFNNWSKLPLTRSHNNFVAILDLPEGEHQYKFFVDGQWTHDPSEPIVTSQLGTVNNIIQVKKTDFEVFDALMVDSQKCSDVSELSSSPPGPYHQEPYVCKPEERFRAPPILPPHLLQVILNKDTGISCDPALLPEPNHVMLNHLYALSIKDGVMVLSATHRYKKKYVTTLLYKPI
T1 sequence (P54619 whole entry partner): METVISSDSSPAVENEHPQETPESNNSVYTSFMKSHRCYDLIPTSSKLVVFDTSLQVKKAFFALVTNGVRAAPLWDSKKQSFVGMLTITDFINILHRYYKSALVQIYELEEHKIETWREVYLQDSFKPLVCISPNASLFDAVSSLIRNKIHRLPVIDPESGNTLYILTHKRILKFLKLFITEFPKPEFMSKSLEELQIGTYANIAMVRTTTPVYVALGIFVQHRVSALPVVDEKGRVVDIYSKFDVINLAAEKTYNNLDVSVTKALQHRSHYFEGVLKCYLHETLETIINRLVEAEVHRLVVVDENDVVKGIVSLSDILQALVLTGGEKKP

Q: For `O=C(/C=C/c1ccc2c(c1)OCO2)/C=C1/C(=O)Nc2ccccc21` [Compound 1], which remaining activity at 5 µM (AMPK-alpha1) is on record?
A: 96%

Q: What about the remaining activity at 5 µM (PKB alpha (Akt1)) of the same compound?
A: 68%

Q: And the remaining activity at 5 µM (RSK2)?
A: 94%

Q: What about the remaining activity at 5 µM (AMPK-alpha2) of the same compound?
A: 90%

Q: What about the remaining activity at 5 µM (IKK beta) of the same compound?
A: 68%

Q: What about the remaining activity at 5 µM (mTOR/FKBP12) of the same compound?
A: 86%

Q: What about the remaining activity at 5 µM (KDR) of the same compound?
A: 93%

Q: And the “kinase activity compared with the control” value (EGFR (T790M, L858R))?
A: 101

Q: What about the remaining activity at 5 µM (c-RAF) of the same compound?
A: 87%

Q: What about the remaining activity at 5 µM (MKK4) of the same compound?
A: 130%

Q: What about the remaining activity at 5 µM (IGF-1R) of the same compound?
A: 105%

Q: What about the remaining activity at 5 µM (MAPK1) of the same compound?
A: 100%

Q: What about the remaining activity at 5 µM (Flt3) of the same compound?
A: 92%

Q: What about the “kinase activity compared with the control” value (EGFR) of the same compound?
A: 106

Q: What about the remaining activity at 5 µM (FAK) of the same compound?
A: 104%

Q: And the remaining activity at 5 µM (DYRK2)?
A: 97%

Q: What about the remaining activity at 5 µM (Abl) of the same compound?
A: 109%

Q: What about the remaining activity at 5 µM (PI3-K alpha) of the same compound?
A: 102%

Q: What about the “kinase activity compared with the control” value (CDK3/cyclinE) of the same compound?
A: 99

Q: What about the “kinase activity compared with the control” value (Met) of the same compound?
A: 89

Q: What about the remaining activity at 5 µM (Pim-1) of the same compound?
A: 96%

Q: What about the remaining activity at 5 µM (MSK1) of the same compound?
A: 98%

Q: What about the remaining activity at 5 µM (c-Src) of the same compound?
A: 99%

Q: And the “kinase activity compared with the control” value (CDK2/cyclinA)?
A: 98

Q: And the remaining activity at 5 µM (c-Kit)?
A: 123%

Q: What about the remaining activity at 5 µM (MKK6) of the same compound?
A: 129%

Q: What about the “Akt2 activity suppressed compared with the control (kinase profile)” value (PKB beta (Akt2); 5 μM) of the same compound?
A: more than 50%

Q: And the remaining activity at 5 µM (PKB beta (Akt2); PKB beta (Akt2), read-out: kinase activity compared with the control)?
A: 47%

Q: What about the remaining activity at 5 µM (PI3-K gamma) of the same compound?
A: 100%

Q: And the remaining activity at 5 µM (GSK3 beta)?
A: 94%

Q: And the “kinase activity compared with the control” value (JNK1 alpha1)?
A: 104

Q: And the remaining activity at 5 µM (mTOR)?
A: 136%

Q: What about the remaining activity at 5 µM (PDK1) of the same compound?
A: 96%

Q: And the remaining activity at 5 µM (PI3-K delta)?
A: 105%

Q: And the remaining activity at 5 µM (MAPK2)?
A: 102%

Q: What about the remaining activity at 5 µM (CHK2) of the same compound?
A: 75%

Q: And the remaining activity at 5 µM (CDK1/cyclinB)?
A: 86%

Q: And the remaining activity at 5 µM (MEK1)?
A: 104%
